Data on seven compounds can be found in ChEMBL document CHEMBL3045064, “3D-QSAR of amino-substituted pyrido[3,2B]pyrazinones as PDE-5 inhibitors” (Med Chem Res, 2012).

In this assay the target is cGMP-specific 3',5'-cyclic phosphodiesterase (Homo sapiens, UniProt O76074). In words: Inhibition of PDE5 (unknown origin).
One may read the IC50 as the concentration that inhibits the measured activity by half. Higher therefore signals a need for much substance. The compound `O=c1c(NCC2CCOCC2)nc2ccc(-c3cnc(O)nc3)nc2n1CC1CCCCC1` gave an IC50 of 0.00288 µM. This counts as single-digit nanomolar.
For the compound `O=c1c(NCCN2CCOCC2)nc2ccc(-c3ccc(O)nc3)nc2n1CC1CCCCC1`, half-maximal inhibition (IC50) was put at 0.537 µM. This IC50 is about 190-fold higher than that of the compound before.
Next, `Cc1noc(C)c1-c1ccc2nc(NCCN3CCOCC3)c(=O)n(CC3CCCCC3)c2n1`: 0.0363 µM; `COc1ccc(-c2ccc3nc(NCCN4CCOCC4)c(=O)n(CC4CCCCC4)c3n2)cn1`: 0.0269 µM.
For the compound `COc1ccc(-c2ccc3nc(NCC4CCOCC4)c(=O)n(CC4CCCCC4)c3n2)cn1`, inhibition was half-maximal at 0.00229 µM (IC50).
Next, `COc1ccc(-c2ccc3nc(NCC(=O)N(C)C)c(=O)n(CC4CCCCC4)c3n2)cn1`: 0.0145 µM; `O=c1c(NCC2CCOCC2)nc2ccc(-c3ccncc3)nc2n1CC1CCCCC1`: 0.0339 µM.
